Laboratory results from patent publication US20250034117A1, “Deuterated 1,3 Dihydro -2H-indole-2-one derivatives” (HMNC Holding GmbH, priority 2023, published 2025).
Read-outs that look alike come from different tables or passages of the source.

What was measured:
[1] = human, microsomes, 0.1 μM, pH 7.4
Experimental: (§1) Liver microsomal stability assays are conducted with human liver microsomes at a final liver microsomal protein concentration of 0.1007 mg per ml. Test compounds are prepared as solutions in 0.01% DMSO, 0.25% acetonitril and 0.25% methanol. The test compound is added to the reaction mixture at a final concentration of 0.1 μM and pre-incubated with pooled liver microsomes in phosphate buffer (pH 7.4) for 10 min on plate shaker in a 37° C. incubator. The reaction is initiated by adding a NADPH-generating system and incubated for 0, 15, 30, 45, and 60 min. The reaction is stopped by transferring the incubation mixture to Stop Buffer solvent (acetonitrile/methanol). Samples are then mixed and centrifuged. The supernatant samples are loaded onto the LC/MS/MS for analysis. Samples are analyzed by LC/MS/MS using multiple reaction monitoring (MRM). The UPLC system consists of a binary LC pump with autosampler, a C-18 column, and a gradient.
(§2) Four reference compounds are tested in each assay (Propranolol, imipramine, verapamil and terfenadine).
(§3) For data analysis, peak areas corresponding to the test compound are recorded. The compound remaining is calculated by comparing the peak area at each time point to time zero. The half-life is calculated from the slope of the initial linear range of the logarithmic curve of compound remaining (%) vs. time, assuming first order kinetics.

in vitro = settings: human, microsomes, pH 7.4
Experimental: as §1, §2, §3

V2 = V2 (Homo sapiens (Human), UniProt P30518); test: Activity assay in the agonistic mode, V2; assay type: biochemical
OT receptors = OT receptors (Homo sapiens (Human), UniProt P30559); test: Activity assay in the agonistic mode, OT receptors; assay type: biochemical
V1a = V1a (Homo sapiens (Human), UniProt P37288); test: Activity assay in the agonistic mode, V1a; assay type: biochemical
[2] = In vitro human liver microsomal (HLM) stability assay; settings: for Half-life: human liver microsomes, first order kinetics; for % Compound Remaining (Mean): 0.1 μM compound, human liver microsomes 0.1007 mg/ml
Experimental: as §1, §2, §3

[3] = 10 mg/kg p.o.; cited from earlier work

OT receptors, sequence (P30559 whole entry): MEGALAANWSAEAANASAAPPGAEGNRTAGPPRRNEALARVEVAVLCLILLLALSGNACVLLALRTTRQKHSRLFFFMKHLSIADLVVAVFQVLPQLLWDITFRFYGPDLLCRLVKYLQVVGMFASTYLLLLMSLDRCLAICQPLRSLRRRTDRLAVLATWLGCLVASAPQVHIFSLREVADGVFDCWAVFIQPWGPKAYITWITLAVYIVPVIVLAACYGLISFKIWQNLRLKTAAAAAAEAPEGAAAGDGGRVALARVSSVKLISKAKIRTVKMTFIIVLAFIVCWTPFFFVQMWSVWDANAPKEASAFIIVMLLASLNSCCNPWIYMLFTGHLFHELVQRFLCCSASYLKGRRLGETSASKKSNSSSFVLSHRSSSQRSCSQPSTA
V1a, sequence (P37288 whole entry): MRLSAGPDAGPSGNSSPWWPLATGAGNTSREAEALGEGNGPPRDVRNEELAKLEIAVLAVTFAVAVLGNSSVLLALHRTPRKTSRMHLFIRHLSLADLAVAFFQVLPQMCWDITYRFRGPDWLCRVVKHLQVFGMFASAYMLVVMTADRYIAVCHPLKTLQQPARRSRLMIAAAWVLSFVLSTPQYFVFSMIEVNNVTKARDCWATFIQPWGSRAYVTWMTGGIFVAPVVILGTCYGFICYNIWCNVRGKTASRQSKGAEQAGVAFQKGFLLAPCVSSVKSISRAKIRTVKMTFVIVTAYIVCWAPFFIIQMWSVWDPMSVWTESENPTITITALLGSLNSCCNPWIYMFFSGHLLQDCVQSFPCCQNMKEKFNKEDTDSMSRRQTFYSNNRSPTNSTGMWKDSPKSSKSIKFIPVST
V2, sequence (P30518 whole entry): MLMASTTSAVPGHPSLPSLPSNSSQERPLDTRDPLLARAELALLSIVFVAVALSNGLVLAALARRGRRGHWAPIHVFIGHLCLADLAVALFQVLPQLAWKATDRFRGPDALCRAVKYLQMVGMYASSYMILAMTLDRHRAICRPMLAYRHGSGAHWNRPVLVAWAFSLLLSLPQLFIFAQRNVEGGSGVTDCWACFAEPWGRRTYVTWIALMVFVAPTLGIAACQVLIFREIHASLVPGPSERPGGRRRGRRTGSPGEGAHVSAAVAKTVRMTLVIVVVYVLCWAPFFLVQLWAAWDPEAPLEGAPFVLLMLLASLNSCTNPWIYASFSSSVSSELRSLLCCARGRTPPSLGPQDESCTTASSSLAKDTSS

SMILES: [2H]C([2H])([2H])Oc1ccccc1[C@@]1(N2C[C@H](O)C[C@H]2C(=O)N(C)C)C(=O)N(S(=O)(=O)c2ccc(OC)cc2OC)c2ccc(Cl)cc21 [Example 2, (2S,4R)1-[(3R)-5-chloro-1-[(2,4-dimethoxyphenyl)sulfonyl]-2,3-dihydro-3-(2-methoxy-d3-phenyl)-2-oxo-1H-indol-3-yl]-4-hydroxy-N,N-dimethyl-2-pyrrolidinecarboxamide]
- % Compound Remaining (Mean) ([1]; 0 h): 100.0%
- % Compound Remaining (Mean) ([1]; 0.25 h): 7.7%
- % Compound Remaining (Mean) ([1]; 0.5 h): 0.4%
- % Compound Remaining (Mean) ([1]; 0.75 h): 0.1%
- % Compound Remaining (Mean) ([1]; 1 h): 0.02%
- half-life at 0.1 μM (in vitro): 4.1 min
- activity in the agonistic mode in comparison to undeuterated nelivaptan (V2): no significant difference
- activity in the agonistic mode in comparison to undeuterated nelivaptan (OT receptors): no significant difference
- activity in the agonistic mode in comparison to undeuterated nelivaptan (V1a): no significant difference

SMILES: [2H]C([2H])([2H])N(C(=O)[C@@H]1C[C@@H](O)CN1[C@]1(c2ccccc2OC)C(=O)N(S(=O)(=O)c2ccc(OC)cc2OC)c2ccc(Cl)cc21)C([2H])([2H])[2H] [Example 1, (2S,4R)1-[(3R)-5-chloro-1-[(2,4-dimethoxyphenyl)sulfonyl]-2,3-dihydro-3-(2-methoxyphenyl)-2-oxo-1H-indol-3-yl]-4-hydroxy-N,N-dimethyl-d6-2-pyrrolidinecarboxamide]
- activity in the agonistic mode in comparison to undeuterated nelivaptan (V2): no significant difference
- activity in the agonistic mode in comparison to undeuterated nelivaptan (OT receptors): no significant difference
- activity in the agonistic mode in comparison to undeuterated nelivaptan (V1a): no significant difference
- Half-life [2]: 4.7 min
- % Compound Remaining (Mean) ([2]; incubation 0 min): 100.0%
- % Compound Remaining (Mean) ([2]; incubation 15 min): 14.3%
- % Compound Remaining (Mean) ([2]; incubation 30 min): 1.2%
- % Compound Remaining (Mean) ([2]; incubation 45 min): 0.1%
- % Compound Remaining (Mean) ([2]; incubation 60 min): 0.03%

SMILES: COc1ccc(S(=O)(=O)N2C(=O)[C@@](c3ccccc3OC)(N3C[C@H](O)C[C@H]3C(=O)N(C)C)c3cc(Cl)ccc32)c(OC)c1 [Nelivaptan, (2S,4R)-1-[(3R)-5-chloro-1-(2,4-dimethoxyphenyl)sulfonyl-3-(2-methoxyphenyl)-2-oxoindol-3-yl]-4-hydroxy-N,N-dimethylpyrrolidine-2-carboxamide, reference compound]
- % Compound Remaining (Mean) ([1]; 0 h): 100.0%
- % Compound Remaining (Mean) ([1]; 0.25 h): 3.8%
- % Compound Remaining (Mean) ([1]; 0.5 h): 0.4%
- % Compound Remaining (Mean) ([1]; 0.75 h): 0.1%
- % Compound Remaining (Mean) ([1]; 1 h): 0.03%
- half-life at 0.1 μM (in vitro): 3.2 min
- duration of action [3]: > 4 h

SMILES: [2H]C([2H])([2H])Oc1ccc(S(=O)(=O)N2C(=O)[C@@](c3ccccc3OC([2H])([2H])[2H])(N3C[C@H](O)C[C@H]3C(=O)N(C([2H])([2H])[2H])C([2H])([2H])[2H])c3cc(Cl)ccc32)c(OC([2H])([2H])[2H])c1 [Example 3, (2S,4R)1-[(3R)-5-chloro-1-[(2,4-dimeth-d6-oxyphenyl)sulfonyl]-2,3-dihydro-3-(2-methoxy-d3-phenyl)-2-oxo-1H-indol-3-yl]-4-hydroxy-N,N-dimethyl-d6-2-pyrrolidinecarboxamide]
- activity in the agonistic mode in comparison to undeuterated nelivaptan (V2): no significant difference
- activity in the agonistic mode in comparison to undeuterated nelivaptan (OT receptors): no significant difference
- activity in the agonistic mode in comparison to undeuterated nelivaptan (V1a): no significant difference
- Half-life [2]: 6.2 min
- % Compound Remaining (Mean) ([2]; incubation 0 min): 100%
- % Compound Remaining (Mean) ([2]; incubation 15 min): 5.40%
- % Compound Remaining (Mean) ([2]; incubation 30 min): 0.39%
- % Compound Remaining (Mean) ([2]; incubation 45 min): 0.15%
- % Compound Remaining (Mean) ([2]; incubation 60 min): 0.13%
